Source: patent US10196391B2 (Hoffmann-La Roche Inc., priority 2014, dated 2019)

What follows are compounds tested on HBsAg (assay: HBsAg assay (CLIA) in HepG2.2.15 cells). Details: HepG2.2.15 cells, secreted HBsAg, CLIA; read-out: IC50 (HBsAg assay).
Assay type: cell-based, HBV
Protocol: HepG2.2.15 cells (Acs et al. Proc Natl Acad Sci USA, 84, (1987), 4641-4), a constitutively HBV-expressing cell line were cultured in DMEM+Glutamax-I medium (Invitrogen, Carlsbad, Calif., USA), supplemented with 10% fetal bovine serum (Invitrogen) and G418 (Invitrogen) at a final concentration of 200 mg/L and maintained in 5% CO2 at 37° C.
HepG2.2.15 cells were seeded in duplicate into white, 96-well plates at 1.5×10^4 cells/well. The cells were treated with a three-fold serial dilution series of the compounds in DMSO. The final DMSO concentration in all wells was 1% and DMSO was used as no drug control.
The HBsAg chemiluminescence immunoassay (CLIA) kit (Autobio Diagnostics Co., Zhengzhou, China, Catalog number: CL0310-2) was used to measure the levels of secreted HBV antigens semi-quantitatively. For the detection 50 μL/well culture supernatant was used and HBsAg was quantified using HBsAg chemiluminescence immunoassay (CLIA) kit (Autobio Diagnostics Co., Zhengzhou, China, Catalog number: CL0310-2), 50 μL of the supernatant was transferred to the CLIA assay plate and 50 μL of enzyme conjugate reagent was added into each well. The plates were sealed and gently agitated for 1 hour at room temperature. The supernatant-enzyme-mixture was discarded and wells were washed 6 times with 300 μL of PBS. The residual liquid was removed by plating the CLIA plate […] on absorbent tissue paper. 25 μL of substrates A and B were added to each well. Luminance was measured using a luminometer (Mithras LB 940 Multimode Microplate Reader) after 10 minutes incubation. Dose-response curves were generated and the IC50 value was extrapolated by using the E-WorkBook Suite (ID Business Solutions Ltd., Guildford, UK). The IC50 was defined as the compound concentration (or conditioned media log dilution) at which HBsAg secretion was reduced by 50% compared to the no drug control.
The compounds according to formula I were tested for their capacity to inhibit HBsAg as described herein.

Compound	IC50
2,3-difluoro-5-[2-(2-pyridyl)-7,8-dihydro-5H-pyrido[4,3-d]pyrimidin-6-yl]phenol [Example 18]	22000 nM

Same assay, conditions: Hepatitis B virus, HepG2.2.15, read-out: IC50 (HBsAg assay)

Compound	IC50
Cc1cc(F)cc(N2CCc3nc(-c4ccccn4)ncc3C2)c1 [Example 40, 6-(3-fluoro-5-methyl-phenyl)-2-(2-pyridyl)-7,8-dihydro-5H-pyrido[4,3-d]pyrimidine]	669 nM
COc1nc(N2CCc3nc(-c4ccccn4)ncc3C2)ncc1Cl [Example 68, 6-(5-chloro-4-methoxy-pyrimidin-2-yl)-2-(2-pyridyl)-7,8-dihydro-5H-pyrido[4,3-d]pyrimidine]	1470 nM
CCCc1nc(-c2ccccn2)nc2c1CN(c1ccc(S(C)(=O)=O)cc1)CC2 [Example 85]	8290 nM
O=C(NCC(F)(F)F)c1cc(F)cc(N2CCc3nc(-c4ncccn4)ncc3C2)c1 [Example 104, 3-fluoro-5-(2-pyrimidin-2-yl-7,8-dihydro-5H-pyrido[4,3-d]pyrimidin-6-yl)-N-(2,2,2-trifluoroethyl)benzamide]	1240 nM
Fc1cc(C2CC2)cc(N2CCc3nc(-c4ncccn4)ncc3C2)c1 [Example 42, 6-(3-cyclopropyl-5-fluoro-phenyl)-2-pyrimidin-2-yl-7,8-dihydro-5H-pyrido[4,3-d]pyrimidine]	566 nM
O=C(O)c1ccc(N2CCc3nc(-c4ccccn4)ncc3C2)cc1 [Example 32, 4-[2-(2-pyridyl)-7,8-dihydro-5H-pyrido[4,3-d]pyrimidin-6-yl]benzoic acid]	9750 nM
c1ccc(-c2ncc3c(n2)CCN(c2ccccn2)C3)nc1 [Example 35, 2,6-bis(2-pyridyl)-7,8-dihydro-5H-pyrido[4,3-d]pyrimidine]	8220 nM
CCOc1cc(N2CCc3nc(-c4ccccn4)ncc3C2)ccc1C(=O)O [Example 66, 2-ethoxy-4-[2-(2-pyridyl)-7,8-dihydro-5H-pyrido[4,3-d]pyrimidin-6-yl]benzoic acid]	13200 nM
COc1cc(N2CCc3nc(-c4ccccn4)ncc3C2)ccc1F [Example 90, 6-(4-fluoro-3-methoxy-phenyl)-2-(2-pyridyl)-7,8-dihydro-5H-pyrido[4,3-d]pyrimidine]	933 nM
COc1cc(N2CCc3cc(-c4ccccn4)ncc3C2)cc(F)c1F [Example 96, 2-(3,4-difluoro-5-methoxy-phenyl)-6-(2-pyridyl)-3,4-dihydro-1H-2,7-naphthyridine]	162 nM
c1ccc(COc2ccc(N3CCc4nc(-c5ccccn5)ncc4C3)cc2)cc1 [Example 46, 6-(4-benzyloxyphenyl)-2-(2-pyridyl)-7,8-dihydro-5H-pyrido[4,3-d]pyrimidine]	8790 nM
CCCOc1cc(N2CCc3nc(-c4ccccn4)ncc3C2)cc(F)c1F [Example 22, 6-(3,4-difluoro-5-propoxy-phenyl)-2-(2-pyridyl)-7,8-dihydro-5H-pyrido[4,3-d]pyrimidine]	750 nM
CS(=O)(=O)c1ccc(N2CCc3nc(-c4ccccn4)ccc3C2)cc1 [Example 89, 6-(4-methylsulfonylphenyl)-2-(2-pyridyl)-7,8-dihydro-5H-1,6-naphthyridine]	6720 nM
Cc1ccc(N2CCc3nc(-c4ccccn4)ncc3C2)cc1 [Example 47, 6-(p-tolyl)-2-(2-pyridyl)-7,8-dihydro-5H-pyrido[4,3-d]pyrimidine]	11400 nM
CS(=O)(=O)c1ccc(N2CCc3nc(-c4ccc(Cl)cn4)ncc3C2)cc1 [Example 6, 2-(5-chloro-2-pyridyl)-6-(4-methylsulfonylphenyl)-7,8-dihydro-5H-pyrido[4,3-d]pyrimidine]	18800 nM
COc1cc(N2CCc3nc(-c4ncccn4)ncc3C2)cc(F)c1C#N [Example 77, 2-fluoro-6-methoxy-4-(2-pyrimidin-2-yl-7,8-dihydro-5H-pyrido[4,3-d]pyrimidin-6-yl)benzonitrile]	265 nM

Compound	IC50
Cc1ccc(-c2ncc3c(n2)CCN(c2ccc(S(C)(=O)=O)cc2)C3)nc1 [Example 3, 2-(5-methyl-2-pyridyl)-6-(4-methylsulfonylphenyl)-7,8-dihydro-5H-pyrido[4,3-d]pyrimidine]	9220 nM
Clc1cc(N2CCc3nc(-c4ncccn4)ncc3C2)cc(Cl)n1 [Example 114, 6-(2,6-dichloro-4-pyridyl)-2-pyrimidin-2-yl-7,8-dihydro-5H-pyrido[4,3-d]pyrimidine]	1170 nM
COCCCOc1ccc(N2CCc3nc(-c4ccccn4)ncc3C2)cc1F [Example 56, 6-[3-fluoro-4-(3-methoxypropoxy)phenyl]-2-(2-pyridyl)-7,8-dihydro-5H-pyrido[4,3-d]pyrimidine]	1840 nM
CNc1nc(-c2ccccn2)nc2c1CN(c1ccc(S(C)(=O)=O)cc1)CC2 [Example 88]	26400 nM
COc1cc(N2CCc3nc(-c4ncccn4)ncc3C2)cc(C(F)(F)F)c1 [Example 100, 6-[3-methoxy-5-(trifluoromethyl)phenyl]-2-pyrimidin-2-yl-7,8-dihydro-5H-pyrido[4,3-d]pyrimidine]	278 nM
FC(F)(F)Oc1cccc(N2CCc3nc(-c4ncccn4)ncc3C2)c1 [Example 43, 2-pyrimidin-2-yl-6-[3-(trifluoromethoxy)phenyl]-7,8-dihydro-5H-pyrido[4,3-d]pyrimidine]	1860 nM
c1cnc(-c2ncc3c(n2)CCN(c2nccs2)C3)nc1 [Example 119, 2-(2-pyrimidin-2-yl-7,8-dihydro-5H-pyrido[4,3-d]pyrimidin-6-yl)thiazole]	6080 nM
COc1ccc(N2CCc3nc(-c4ccccn4)ncc3C2)cc1OC [Example 59, 6-(3,4-dimethoxyphenyl)-2-(2-pyridyl)-7,8-dihydro-5H-pyrido[4,3-d]pyrimidine]	9060 nM
Fc1cc(N2CCc3nc(-c4ccccn4)ncc3C2)ccc1Br [Example 52, 6-(4-bromo-3-fluoro-phenyl)-2-(2-pyridyl)-7,8-dihydro-5H-pyrido[4,3-d]pyrimidine]	1970 nM
COc1cc(F)cc(N2CCc3nc(-c4ccccn4)ncc3C2)c1 [Example 91, 6-(3-fluoro-5-methoxy-phenyl)-2-(2-pyridyl)-7,8-dihydro-5H-pyrido[4,3-d]pyrimidine]	198 nM
COc1cc(N2CCc3nc(-c4ncccn4)ncc3C2)cc(F)c1F [Example 26, 6-(3,4-difluoro-5-methoxy-phenyl)-2-pyrimidin-2-yl-7,8-dihydro-5H-pyrido[4,3-d]pyrimidine]	61 nM
COc1cc([N+](=O)[O-])ccc1N1CCc2nc(-c3ccccn3)ncc2C1 [Example 34, 6-(2-methoxy-4-nitro-phenyl)-2-(2-pyridyl)-7,8-dihydro-5H-pyrido[4,3-d]pyrimidine]	874 nM
OCCOc1cc(N2CCc3nc(-c4ccccn4)ncc3C2)cc(F)c1F [Example 94, 2-[2,3-difluoro-5-[2-(2-pyridyl)-7,8-dihydro-5H-pyrido[4,3-d]pyrimidin-6-yl]phenoxy]ethanol]	660 nM
COc1cc(Cl)cc(N2CCc3nc(-c4ncccn4)ncc3C2)c1 [Example 98, 6-(3-chloro-5-methoxy-phenyl)-2-pyrimidin-2-yl-7,8-dihydro-5H-pyrido[4,3-d]pyrimidine]	268 nM
COc1cc(F)cc(N2CCc3nc(-c4ncccn4)ncc3C2)n1 [Example 111, 6-(4-fluoro-6-methoxy-2-pyridyl)-2-pyrimidin-2-yl-7,8-dihydro-5H-pyrido[4,3-d]pyrimidine]	362 nM
